Assay results taken from patent US8211883B2, “Topical delivery of phthalocyanines” (priority 2004, dated 2012).
Marks after values point to notes of the source that are not given here.

How the values were obtained:
[1] = test system: Chinese hamster V79-379 lung fibroblasts; test: Clonogenic cell survival of V79 cells after photodynamic treatment; type: cell-based; settings: for LD 90 (light dosage that kills 90% of cells): 18 hours, 675 nm red light, VII# preplated data only, XXI* not totally soluble at 0.5 mM
Experimental: Cells were irradiated at a density of approximately 2×10^6 per 25 cm^2 flask. Immediately after irradiation, the cell monolayer was treated with trypsin, and appropriate aliquots were plated in triplicate to give 100 to 200 colonies in each 10-cm Petri dish. Cell survival was determined by the ability of the cells to form colonies containing at least 50 cells. The response of cells treated with 1 μM AlPcCl and light was compared in each experiment.
Photocytotoxicity of the phthalocyanines compounds I to VI was also assessed by clonogenic assay (Table 1, FIG. 1). In all experiments, 1 μM AlPcCl was included for comparison purposes. From the survival curves (FIG. 1), the fluence reducing the cell survival to 10% (F10) was obtained. The ratio of the F10 for AlPcCl and the F10 for the test compound is recorded in Table 1. Compounds I and II appear to be nearly as efficient photosensitizers as AlPcCl, while compound IV (assayed at half the concentration) was almost twice as efficient as the standard AlPcCl. […] However, in spite of the low efficiency of compound V in inhibiting cell growth, survival measurements were made for this compound, because it was taken up into V79 cells somewhat more efficiently than compounds III and VI.
In order to take differences in cellular uptake into consideration in the assessment of the relative efficiency of these phthalocyanines as photosensitizers of V79 cells, the survival data were replotted against the product of intracellular phthalocyanine concentration and light fluence (FIG. 2). From these curves, the product of intracellular concentration and light fluence reducing survival to 10% (CF10) was obtained, and comparisons of the values for AlPcCl and the test compounds are recorded in Table 1. By this and the other criteria, compound IV appears to be the most efficient photosensitizer. However, when consideration is given to the lesser cell uptake of compound V, it appears to be about as strong a photosensitizer as compound IV.
Using the cell culture methods described above, V79 cells Chinese hamster lung fibroblasts were treated with either 0.5 or 1.0 μM of the phthalocyanines listed in Table 3. About 18 hours thereafter, the cells were irradiated with increasing doses of 675 nm broad band red light from a 500 W tungsten-halogen lamp fitted with a 600 nm high pass filter, to determine the light dosage that would kill 90% of the phthalocyanine treated cells. Where 90% of the cells were not killed, the maximum percent of cells killed were determined, (expressed as % survival) and the related light dosage recorded.

L5178Y cells = test: Induction of apoptosis (DNA ladder) in L5178Y cells after PDT; type: cell-based, Mouse; settings: for induction of apoptosis: 1 μM at a fluence of 30 kJ/m^2
Experimental: The cells were used while in exponential growth. Stock solutions of either 0.5 or 1 mM of PcIV, PcXII, PcX, PcXVIII were prepared in dimethylformamide unless otherwise indicated and added to the 10 mL medium at a rate of 1 μL per mL. After allowing 18 hours for uptake of the phthalocyanine into the cells, the flasks containing the cultures were placed on a glass exposure tray above a 500-W tungsten-halogen lamp. The exposure tray was fitted with a 600-nm high-pass filter. Flasks were exposed to various fluences of red light (up to 30 kJ/m^2) at a fluence rate of approximately 74 W/m^2). After irradiation, the cells were collected by centrifugation.
The aliquots were plated in sufficient numbers to produce 50-200 colonies. The dishes were kept in an incubator at 37° C. in an atmosphere of 5% CO2 and 95% air for 10-14 days to allow viable cells to form colonies. Colonies were counted by eye. […] The plating efficiencies of the treated cells are normalized to the plating efficiencies of control cells in each experiment.
Cells were treated with various concentrations of the compounds listed in the table and various light fluences. DNA gels were prepared and examined for the characteristic “ladder” pattern of DNA fragments. For each Pc, the minimum total PDT dose tested (calculated as the product of the minimum phthalocyanine concentration and the minimum fluence) which produced visible DNA fragments is recorded. […] PcXVIII was also added at 0.5 and 1.0 μM.

[2] = test system: Chinese hamster V79-379 lung fibroblasts; test: Uptake of phthalocyanines into V79 cells; settings: for n Moles/10^6 Cells/μM (composite uptake value): V79 cells, average of all data, asterisk: listed value is for 1 μM, average would be higher
Experimental: Chinese hamster V79-379 lung fibroblasts were grown in monolayer culture in McCoy's 5A medium (Gibco Laboratories, Grand Island, N.Y.) augmented with 10% calf serum and buffered with 20 mM HEPES (pH 7.4).
Total uptake was determined by scraping the phthalocyanine-treated monolayer, collecting the cells on a glass-fiber filter, and extracting the phthalocyanine in ethanol, as previously described by Ramakrishnan, et al., 1989. (Ramakrishnan, N., M. E. Clay, M. F. Horng, A. R. Antunez, & H. H. Evans, “DNA Lesions and DNA Degradation in Mouse Lymphoma L5178Y Cells After Photodynamic Treatment Sensitized by Chloroaluminum Phthalocyanine”, Photochem. Photobiol, in press, 1989). The amount of drug was determined by absorption at 674 nm and expressed relative to the number of cells, as measured in a Coulter cell counter on an aliquot of the cell population. Controls included cells not treated with drug, medium alone, and drug-containing medium without cells.
The cells were treated with 1 μM AlPcCl (from Eastman Kodak, Rochester, N.Y.) or with phthalocyanine compositions I-VI (0.5-1.0 μM final concentration in the medium) for 18 hours by adding the appropriate volume of a 1.0 mM stock solution in dimethylformamide (DMF) to the culture medium. The growth medium was replaced with 4 mL Hank's balanced salt solution (HBSS), and the cells were irradiated. The light source was a 500 W tungsten-halogen lamp located approximately 29 inches below the surface of a glass exposure tray. The visible light administered to the cells was filtered to allow passage of only that portion of the visible spectrum above 600 nm (Lee Primary red filter No. 106, Vincent Lighting, Cleveland, Ohio). The fluence rate was approximately 0.074 kJ/m^2/s at the level of the cell monolayer.
V79 cells Chinese hamster lung fibroblasts were cultured using the cell culture methods described above. The phthalocyanines listed in table 2 were added to the cultures typically at concentrations of 1 μM, 2 μM, and/or 4 μM and incubated for 18 hours, after which aliquots of the cells were counted and other aliquots were collected on a glass fiber filter. When the filters were dry, the phthalocyanines were extracted into ethanol and the absorption determined at the peak wavelength, usually 668 nm. Values were converted to nmoles taken up by 10^6 cells, using an extinction coefficient of 2.93×10^5.

SMILES	Uptake Into V79 Cells, 1 μM ([2]; 18 hours)	Uptake Into V79 Cells, 4 μM ([2]; 18 hours)	n Moles/10^6 Cells/μM (composite uptake value) [2]	other results
CCN(CC)c1ccc2c(c1)Oc1cc(N(CC)CC)ccc1C21c2ccccc2C(=O)N1CCCC[Si](C)(C)O[Si]1(O[Si](C)(C)C(C)(C)C)n2c3c4ccccc4c2N=C2N=C(N=c4c5ccccc5c(n41)=NC1=NC(=N3)c3ccccc31)c1ccccc12 (centres unmarked) [Compound XV, (CH3)3C(CH3)2SiOSiPcOSi(CH3)2(CH2)4NCOC27H30N2O]	0.01 ± 0.01 n Moles/10^6 cells	0.14 ± 0.12 n Moles/10^6 cells	<0.05 n Moles/10^6 Cells/μM	Maximum Effect (% survival at kj/m^2) ([1]; 4 μM, at 20 kj/m^2): 81% at 20; induction of apoptosis (L5178Y cells): did not induce apoptosis
CCCCCCCCCCCC[N+](C)(C)CCC[Si](C)(C)O[Si]1(O[Si](C)(C)CCC[N+](C)(C)CCCCCCCCCCCC)n2c3c4ccccc4c2N=C2N=C(N=c4c5ccccc5c(n41)=NC1=NC(=N3)c3ccccc31)c1ccccc12 [Compound XIV, SiPc[OSi(CH3)2(CH2)3N^+(CH3)2(CH2)11CH3]22I^−]	0.03 ± 0.01 n Moles/10^6 cells	0.05 ± 0.01 n Moles/10^6 cells	<0.05 n Moles/10^6 Cells/μM	Maximum Effect (% survival at kj/m^2) ([1]; 1 μM, at 10 kj/m^2): 93% at 10; induction of apoptosis (L5178Y cells): did not induce apoptosis
CCCCCCCCCCCC[N+](C)(C)CCC[Si](C)(C)[O][Al]1[n]2c3c4ccccc4c2N=C2N=C(N=c4c5ccccc5c([n]41)=NC1=NC(=N3)c3ccccc31)c1ccccc12.[I-] [Compound XXI, AlPcOSi(CH3)2(CH2)3N^+(CH3)2)(CH2)11CH3I^−]	1.2 ± 0.2 n Moles/10^6 cells	5.8 ± 0.4 n Moles/10^6 cells	1.3 n Moles/10^6 Cells/μM	LD 90 (light dosage that kills 90% of cells) ([1]; 0.5 μM): 15* kj/m^2
C[Si](C)(CCCN1CCOCC1)O[Si]1(O)n2c3c4ccccc4c2N=C2N=C(N=c4c5ccccc5c(n41)=NC1=NC(=N3)c3ccccc31)c1ccccc12 (centres unmarked) [Compound XIX, HOSiPcOSi(CH3)2(CH2)3NC4H8O]	0.3 ± 0.1 n Moles/10^6 cells	2.4 ± 0.5 n Moles/10^6 cells		Maximum Effect (% survival at kj/m^2) ([1]; 1 μM, at 10 kj/m^2): 81% at 10
CN(C)CCCN(CCCN(C)C)CCC[Si](C)(C)O[Si]1(O)n2c3c4ccccc4c2N=C2N=C(N=c4c5ccccc5c(n41)=NC1=NC(=N3)c3ccccc31)c1ccccc12 (centres unmarked) [Compound XXVII, HOSiPcOSi(CH3)2(CH2)3N[(CH2)3N(CH3)2]2]	1.8 n Moles/10^6 cells	5.0 ± 0.01 n Moles/10^6 cells	1.5 n Moles/10^6 Cells/μM	LD 90 (light dosage that kills 90% of cells) ([1]; 0.5 μM): 6.8 kj/m^2
C[Si](C)(CCCO)O[Si]1(O)n2c3c4ccccc4c2N=C2N=C(N=c4c5ccccc5c(n41)=NC1=NC(=N3)c3ccccc31)c1ccccc12 (centres unmarked) [Compound XVII, HOSiPCOSi(CH3)2(CH2)3OH]		1.7 ± 0.2 n Moles/10^6 cells	0.4 n Moles/10^6 Cells/μM	Maximum Effect (% survival at kj/m^2) ([1]; 1 μM, at 10 kj/m^2): 19% at 10
C[Si](C)(CCCCNC(=S)N[C@@H]1O[C@H](CO)[C@@H](O)[C@H](O)[C@H]1O)O[Si]1(O[Si](C)(C)CCCCNC(=S)N[C@@H]2O[C@H](CO)[C@@H](O)[C@H](O)[C@H]2O)n2c3c4ccccc4c2N=C2N=C(N=c4c5ccccc5c(n41)=NC1=NC(=N3)c3ccccc31)c1ccccc12 [Compound XI, SiPc[OSi(CH3)2(CH2)4NHCSNHC6H111O5]2]	0.1 n Moles/10^6 cells	0.3 ± 0.1 n Moles/10^6 cells	0.1 n Moles/10^6 Cells/μM	Maximum Effect (% survival at kj/m^2) ([1]; 1 μM, at 20 kj/m^2): 100% at 20; induction of apoptosis (L5178Y cells): did not induce apoptosis
CC(=O)OCCC[Si](C)(C)O[Si]1(O)n2c3c4ccccc4c2N=C2N=C(N=c4c5ccccc5c(n41)=NC1=NC(=N3)c3ccccc31)c1ccccc12 (centres unmarked) [Compound XIII, HOSiPcOSi(CH3)2(CH2)3OCOCH3]		1.7 ± 0.3 n Moles/10^6 cells	0.4 n Moles/10^6 Cells/μM	Maximum Effect (% survival at kj/m^2) ([1]; 1 μM, at 15 kj/m^2): 88% at 15
CN(C)CCCCCCCC[Si](C)(C)O[Si]1(O)n2c3c4ccccc4c2N=C2N=C(N=c4c5ccccc5c(n41)=NC1=NC(=N3)c3ccccc31)c1ccccc12 (centres unmarked) [Compound XXII, HOSiPcOSi(CH3)2(CH2)8N(CH3)2]				LD 90 (light dosage that kills 90% of cells) ([1]; 0.5 μM): 10 kj/m^2; Fluence, Minimum Demonstrated Condition to Induce Apoptosis (L5178Y cells; 0.5 μM): 10.0 kJ/m^2; C × F Ld90, Minimum Demonstrated Condition to Induce Apoptosis (L5178Y cells; 0.5 μM, product of concentration and fluence): 5.0 kJ/m^2
CCCCN(CCCC)CCC[Si](C)(C)O[Si]1(O)n2c3c4ccccc4c2N=C2N=C(N=c4c5ccccc5c(n41)=NC1=NC(=N3)c3ccccc31)c1ccccc12 (centres unmarked) [Compound XXV, HOSiPcOSi(CH3)2(CH2)3N(CH2)3CH3)2]	0.02 ± 0.02 n Moles/10^6 cells	1.5 ± 0.3 n Moles/10^6 cells	<0.05* n Moles/10^6 Cells/μM	Maximum Effect (% survival at kj/m^2) ([1]; 0.5 μM, at 8 kj/m^2): 87% at 8
C[Si](C)(CCCN=C=S)O[Si]1(O)n2c3c4ccccc4c2N=C2N=C(N=c4c5ccccc5c(n41)=NC1=NC(=N3)c3ccccc31)c1ccccc12 (centres unmarked) [Compound XXVI, HOSiPcOSi(CH3)2(CH2)3NCS]				Maximum Effect (% survival at kj/m^2) ([1]; 1 μM, at 30 kj/m^2): 100% at 30
C[Si](C)(CCCN1CCSCC1)O[Si]1(O)n2c3c4ccccc4c2N=C2N=C(N=c4c5ccccc5c(n41)=NC1=NC(=N3)c3ccccc31)c1ccccc12 (centres unmarked) [Compound XXIV, HOSiPCOSi(CH3)2(CH2)3NC4H8S]	0.003 ± 0.001 n Moles/10^6 cells	1.3 ± 0.1 n Moles/10^6 cells	<0.05* n Moles/10^6 Cells/μM	Maximum Effect (% survival at kj/m^2) ([1]; 0.5 μM, at 10 kj/m^2): 100% at 10
CCCCN1CCN(CCC[Si](C)(C)O[Si]2(O)n3c4c5ccccc5c3N=C3N=C(N=c5c6ccccc6c(n52)=NC2=NC(=N4)c4ccccc42)c2ccccc23)CC1 (centres unmarked) [Compound XXXI, HOSiPCOSi(CH3)2(CH2)3NC4H8N(CH2)3CH3]			0.3 n Moles/10^6 Cells/μM	Maximum Effect (% survival at kj/m^2) ([1]; 0.5 μM, at 10 kj/m^2): 30% at 10; Uptake Into V79 Cells, 2 μM ([2]; 2 μM, 18 hours): 0.61 ± 0.1 n Moles/10^6 cells
